Here are results for 18 molecules from US4221811A, “Antifungal and/or antibacterial organotin compounds, and use” (priority 1977, dated 1980).

In data set [1] the test system is Aspergillus niger. In kind it is cell-based. The note with it: after three days, glucose-agar, pH~6.9-7.0. The source says: (§1) Antifungal activity of organotin compounds. Minimal concentra-
(§2) tion (mg/l) causing complete inhibition of visible growth (MIC;
(§3) after three days). -Test medium: glucose-agar; pH~6.9-7.0.

The test system of data set [2] is Botrytis allii. In kind it is cell-based. The following applies: after three days, glucose-agar, pH~6.9-7.0.
Source text: as §1, §2, §3

Data set [3] has as its system Penicillium italicum. In kind it is cell-based. The note with it: after three days, glucose-agar, pH~6.9-7.0.
Source text: as §1, §2, §3

Data set [4] has as its system Cladosporium cucumerinum. It counts as cell-based. The note with it: after three days, glucose-agar, pH~6.9-7.0.
Source text: as §1, §2, §3

Data set [5] concerns fungi. Description: Antifungal activity. In kind it is cell-based.
Source text: as §1, §2, §3

The test system of data set [6] is bacteria. Description: Antibacterial activity. It counts as cell-based. The source says: (§4) Antibacterial activity of organotin compounds. Minimal concentration
(§5) causing complete inhibition of visible growth (MIC; after three days).
(§6) Test medium: peptone-glucose agar; pH ~ 6.9-7.0.

Data set [7] concerns B. subtilis. It counts as cell-based. The note with it: B. subtilis (Gram-pos.); after three days; peptone-glucose agar; pH ~ 6.9-7.0.
Source text: as §4, §5, §6

Data set [8] deals with S. lactis. In kind it is cell-based. The note with it: S. lactis (Gram-pos.); after three days; peptone-glucose agar; pH ~ 6.9-7.0.
Source text: as §4, §5, §6

In data set [9] the test system is P. fluorescens. In kind it is cell-based. The note with it: P. fluorescens (Gram-neg.); after three days; peptone-glucose agar; pH ~ 6.9-7.0.
Source text: as §4, §5, §6

Data set [10] deals with E. coli. In kind it is cell-based. The following applies: E. coli (Gram-neg.); after three days; peptone-glucose agar; pH ~ 6.9-7.0.
Source text: as §4, §5, §6

Data set [11] can be described thus: physchem. The following applies: water.
Data set [12] concerns fungi. The note with it: literature citation (1); cited from earlier work.

Broadly, the solubility is the concentration that dissolves in the medium under given conditions.

Regarding `CCC[CH2][Sn]([CH2]CCC)([CH2]CCC)[CH2]CC(=O)OC` [Bu3 Sn(CH2)2 COOMe, tributyl-(3-carbomethoxyethyl)tin], the “Minimal concentration causing complete inhibition of visible growth (MIC)” value in data set [1] was determined as 5 µg/mL; in [2], 0.5 µg/mL; in data set [3] it was 1 µg/mL; in [4], 1 µg/mL; in data set [7] it was 30 µg/mL; in data set [8] it was 30 µg/mL. The entries for the “Minimal concentration causing complete inhibition of visible growth (MIC)” value in data set [9] and in data set [10] were more than 1000 µg/mL and 100 µg/mL, respectively. In data set [5], the “antifungal activity (in words)” value was “high antifungal and antibacterial activity”. Further, in data set [6], the “antibacterial activity (in words)” value was “high antifungal and antibacterial activity”.

Consider `CCC[CH2][Sn]([CH2]CCC)([CH2]CCC)[CH2]CCBr` [Bu3 Sn(CH2)3 Br, (3-bromopropyl)tributyltin], for which the “antifungal activity (in words)” value in data set [5] was “somewhat less effective, although they show a surprisingly effective antifungal activity”.

Molecule `CCC[CH2][Sn]([CH2]CCC)([CH2]CCC)[CH2]CCN(C)C` [Bu3 Sn(CH2)3 NMe2, (3-dimethylaminopropyl)tributyltin] returned a solubility in data set [11] of approximately 20 mg/mL.

Consider `CCC[CH2][Sn]([CH2]CCC)([CH2]CCC)[CH2]CCCBr` [Bu3 Sn(CH2)4 Br, (4-bromobutyl)tributyltin], for which, in [5], the “antifungal activity (in words)” value was “somewhat less effective, although they show a surprisingly effective antifungal activity”.

Regarding `CCC[CH2][Sn]([Br])([CH2]CCC)[CH2]CCC` [Bu3 SnBr], the “antifungal activity, MIC values” in data set [12] was “about 10 mg/l”.

For the molecule `CCC[CH2][Sn]([CH2]CCC)([CH2]CCC)[O]C(C)=O` [Bu3 SnOAc, reference compound], the “Minimal concentration causing complete inhibition of visible growth (MIC)” value in data set [1] came to 1 µg/mL; in data set [2] it was 0.5 µg/mL; in [3] it was 0.5 µg/mL; in data set [4], 1 µg/mL; in data set [7], 2 µg/mL; in data set [8], 5 µg/mL. In addition, the “Minimal concentration causing complete inhibition of visible growth (MIC)” value is 100 µg/mL in [9] and more than 500 µg/mL in data set [10].

For `CCC[CH2][Sn]([CH2]CCC)([CH2]CCC)[CH2]CCC` [Bu4 Sn, reference compound], the “Minimal concentration causing complete inhibition of visible growth (MIC)” value in [1], in data set [2], in data set [3], in [4], in data set [7] and in [8] was more than 500 µg/mL throughout. In addition, the “Minimal concentration causing complete inhibition of visible growth (MIC)” value in data set [9] and in [10] was more than 500 µg/mL each time.

As for `CCC[CH2][Sn]([CH3])([CH2]CCC)[CH2]CCNCCCN(C)C.Cl.Cl` [MeBu2 Sn(CH2)3 NH(CH2)3 NMe2 . 2], the solubility in water worked out at 50%. In addition, in data set [1], the “Minimal concentration causing complete inhibition of visible growth (MIC)” value was determined as 100 µg/mL. In addition, the “Minimal concentration causing complete inhibition of visible growth (MIC)” value in data set [2] is not above 10 µg/mL. The “Minimal concentration causing complete inhibition of visible growth (MIC)” value in data set [3] was not above 10 µg/mL. For the same molecule, in data set [4], the “Minimal concentration causing complete inhibition of visible growth (MIC)” value was 20 µg/mL. Moreover, the “Minimal concentration causing complete inhibition of visible growth (MIC)” value in [7] was found to be 3 µg/mL. Besides, in data set [8], the “Minimal concentration causing complete inhibition of visible growth (MIC)” value turned out to be 3 µg/mL. Further, the “Minimal concentration causing complete inhibition of visible growth (MIC)” value in data set [9] was found to be 3 µg/mL. Also, in [10], the “Minimal concentration causing complete inhibition of visible growth (MIC)” value amounted to 3 µg/mL.

For `CCC[CH2][Sn]([CH3])([CH2]CCC)[CH2]CCNCCCN(C)C` [MeBu2 Sn(CH2)3 NH(CH2)3 NMe2, N-[3-(methyldibutylstannyl)propyl-N', N'-dimethyltrimethylene]diamine], the “Minimal concentration causing complete inhibition of visible growth (MIC)” value in [1] is 50 µg/mL; in data set [2] it was not above 10 µg/mL; in data set [3], not above 10 µg/mL; in data set [4] it was 50 µg/mL; in [7], 10 µg/mL; in data set [8] it was 10 µg/mL. In addition, the “Minimal concentration causing complete inhibition of visible growth (MIC)” value in [9] and in [10] was 10 µg/mL in each case.

`CCC[CH2][Sn]([CH3])([Br])[CH2]CCC` [MeBu2 SnBr]: the “antifungal activity, MIC values” in data set [12] was “about 10 mg/l”.

As to `CCC[CH2][Sn]([CH3])([Br])[CH2]CC[N+](C)(C)C.[I-]` (centres unmarked) [MeBuBrSn(CH2)3 NMe3 I, reference compound], the “Minimal concentration causing complete inhibition of visible growth (MIC)” value in data set [1], in data set [2], in [3] and in [4] was more than 500 µg/mL throughout. Also, the “antifungal activity, MIC” value in [5] was more than 500 µg/mL.

In the case of `CCC[CH2][Sn]([CH3])([Br])[CH2]CC` (centres unmarked) [MePrBuSnBr], the “antifungal activity, MIC values” in data set [12] is “about 10 mg/l”.

On to `C[N+](C)(C)CC[CH2][Sn]([c]1ccccc1)([c]1ccccc1)[c]1ccccc1.[I-]` [Ph3 Sn(CH2)3 NMe3 I], for which the “Minimal concentration causing complete inhibition of visible growth (MIC)” value was more than 500 µg/mL in data set [1]; 20 µg/mL in data set [2]; 200 µg/mL in data set [3]; 500 µg/mL in [4]; 10 µg/mL in [7]; 10 µg/mL in data set [8]. Besides, the “Minimal concentration causing complete inhibition of visible growth (MIC)” value in data set [9] and in data set [10] was 1000 µg/mL throughout.

Consider `CC[CH2][Sn]([CH2]CC)([CH2]CC)[CH2]CCNCCCN(C)C.Cl.Cl` [Pr3 Sn(CH2)3 NH(CH2)3 NMe2 . 2], for which the solubility in water worked out at 50%. In [1], the “Minimal concentration causing complete inhibition of visible growth (MIC)” value is 20 µg/mL. In addition, in data set [2], the “Minimal concentration causing complete inhibition of visible growth (MIC)” value was not above 10 µg/mL. Moreover, the “Minimal concentration causing complete inhibition of visible growth (MIC)” value in data set [3] turned out to be 10 µg/mL. Also, the “Minimal concentration causing complete inhibition of visible growth (MIC)” value in [4] turned out to be 20 µg/mL. Besides, in data set [7], the “Minimal concentration causing complete inhibition of visible growth (MIC)” value amounted to 10 µg/mL. Also, the “Minimal concentration causing complete inhibition of visible growth (MIC)” value in data set [8] came out at 10 µg/mL. The “Minimal concentration causing complete inhibition of visible growth (MIC)” value in [9] is 10 µg/mL. For the same molecule, the “Minimal concentration causing complete inhibition of visible growth (MIC)” value in data set [10] turned out to be 10 µg/mL.

Consider `CC[CH2][Sn]([CH2]CC)([CH2]CC)[CH2]CCNCCCN(C)C` [Pr3 Sn(CH2)3 NH(CH2)3 NMe2, N-[3-(tripropylstannyl)propyl-N', N'-dimethyltrimethylene]diamine], for which the “Minimal concentration causing complete inhibition of visible growth (MIC)” value in data set [1] was 10 µg/mL; in data set [2] it was not above 10 µg/mL; in data set [3], not above 10 µg/mL; in data set [4] it was not above 10 µg/mL; in data set [7] it was 10 µg/mL; in [8], 10 µg/mL. The “Minimal concentration causing complete inhibition of visible growth (MIC)” value in data set [9] and in data set [10] was 10 µg/mL in each case.

`CCC[CH2][Sn]([CH2]CCC)([CH2]CCC)[O][Sn]([CH2]CCC)([CH2]CCC)[CH2]CCC` [bis(tributyltin)oxide, reference compound] displayed a solubility in water of 0.003%.

In the case of `CCC[CH2][Sn]([CH2]CCC)([CH2]CCC)[CH2]Cc1ccncc1` [tributyl-[3-(4-pyridyl)ethyl]tin], in data set [5], the “antifungal activity (in words)” value is reported as “high antifungal activity”.

Take `CC[CH2][Sn]([CH2]CC)([CH2]CC)[CH2]Cc1ccncc1` [tripropyl-[3-(4-pyridyl)ethyl]tin]: the “antifungal activity (in words)” value in data set [5] was “high antifungal as well as antibacterial activity”. Further, the “antibacterial activity (in words)” value in data set [6] is on record as “high antifungal as well as antibacterial activity”.
